Assay [1] concerns the target T1, Rat plasma DPP-IV (Rattus norvegicus, UniProt P14740).
T1 construct: Rat plasma DPP-IV; from tissue; host or cells: rat plasma
The experiment in a line: Plasma DPP-IV inhibitory activity, fluorescence assay with Gly-Pro-MCA (rat plasma). The assay is classed as biochemical. The settings on record: rat plasma (10-fold dilution), Gly-Pro-MCA substrate, room temperature, 60 min. The procedure:
(§1) The plasma DPP-IV inhibitory activity of human and rat was measured according to the fluorescence assay method and under the conditions of Table 10. As a DPP-IV specific fluorescent substrate, Gly-Pro-MCA (Peptide Institute, Inc.) was used, and reaction solutions having the following compositions containing various concentrations of the test substance were incubated at room temperature for 60 min and the fluorescence intensity (Excitation 360 nm/Emission 465 nm) measured (SPECTRA FLUOR, Tecan Group, Ltd.) was taken as the DPP-IV activity.
(§2) The inhibitory ratio to a solvent addition group was calculated and IC50 value was determined by logistic analysis.

Assay [2] addresses T2, Human plasma DPP-IV (Homo sapiens, UniProt P27487).
T2 construct: Human plasma DPP-IV; from tissue; host or cells: human plasma
Put plainly: Plasma DPP-IV inhibitory activity, fluorescence assay with Gly-Pro-MCA (human plasma). The assay is classed as biochemical. The settings on record: for IC50: human plasma (10-fold dilution), Gly-Pro-MCA substrate, room temperature, 60 min. The procedure: as §1, §2

SMILES strings stand for the structures. Structures can show the parent of a compound that is named as a salt.

T1 sequence (P14740 38-767 limits assumed): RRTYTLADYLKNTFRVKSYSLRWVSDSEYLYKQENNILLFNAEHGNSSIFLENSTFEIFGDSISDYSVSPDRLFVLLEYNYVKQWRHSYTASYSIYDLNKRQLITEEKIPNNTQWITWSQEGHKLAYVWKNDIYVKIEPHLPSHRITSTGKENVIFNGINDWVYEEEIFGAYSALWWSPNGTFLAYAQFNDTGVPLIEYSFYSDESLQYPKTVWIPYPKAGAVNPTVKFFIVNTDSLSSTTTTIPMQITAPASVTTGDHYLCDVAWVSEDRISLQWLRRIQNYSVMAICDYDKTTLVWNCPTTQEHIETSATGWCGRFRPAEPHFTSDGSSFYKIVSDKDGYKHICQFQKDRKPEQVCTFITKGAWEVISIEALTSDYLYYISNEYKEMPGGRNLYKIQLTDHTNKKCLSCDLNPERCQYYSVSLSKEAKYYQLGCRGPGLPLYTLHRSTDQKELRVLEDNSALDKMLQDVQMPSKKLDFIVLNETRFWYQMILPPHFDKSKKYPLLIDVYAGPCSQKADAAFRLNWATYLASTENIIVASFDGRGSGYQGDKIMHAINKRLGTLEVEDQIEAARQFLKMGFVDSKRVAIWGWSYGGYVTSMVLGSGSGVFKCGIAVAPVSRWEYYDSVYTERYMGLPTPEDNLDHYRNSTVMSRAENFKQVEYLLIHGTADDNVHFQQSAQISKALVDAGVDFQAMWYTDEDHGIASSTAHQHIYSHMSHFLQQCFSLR
T2 sequence (P27487 39-766 limits assumed): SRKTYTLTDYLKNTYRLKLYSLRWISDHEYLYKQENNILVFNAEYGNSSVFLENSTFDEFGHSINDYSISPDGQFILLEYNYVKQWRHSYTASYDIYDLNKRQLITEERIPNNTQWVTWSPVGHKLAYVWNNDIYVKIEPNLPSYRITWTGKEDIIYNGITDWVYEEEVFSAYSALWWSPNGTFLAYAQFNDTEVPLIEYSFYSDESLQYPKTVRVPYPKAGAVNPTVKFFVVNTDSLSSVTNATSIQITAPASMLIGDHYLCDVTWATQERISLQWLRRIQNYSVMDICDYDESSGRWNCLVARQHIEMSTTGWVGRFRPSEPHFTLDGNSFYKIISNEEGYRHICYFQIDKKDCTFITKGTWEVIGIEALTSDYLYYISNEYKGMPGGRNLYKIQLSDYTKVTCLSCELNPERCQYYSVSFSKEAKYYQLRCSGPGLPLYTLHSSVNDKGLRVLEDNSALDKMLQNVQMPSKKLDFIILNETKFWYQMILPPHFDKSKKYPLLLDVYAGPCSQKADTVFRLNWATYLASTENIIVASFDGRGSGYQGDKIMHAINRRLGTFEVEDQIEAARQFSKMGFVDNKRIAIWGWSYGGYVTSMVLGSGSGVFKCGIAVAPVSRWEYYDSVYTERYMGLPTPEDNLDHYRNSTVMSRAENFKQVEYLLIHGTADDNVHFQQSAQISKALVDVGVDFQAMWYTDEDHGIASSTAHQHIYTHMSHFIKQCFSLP

Consider `N[C@@H](CCCCN1CCN(c2cc(C(F)(F)F)nc3ccccc23)CC1)C(=O)N1CCSC1` [Example 28, 3-{(S)-2-amino-6-[4-(2-trifluoromethyl-4-quinolyl)piperazin-1-yl]hexanoyl}-1,3-thiazolidine dihydrochloride], for which the concentration for half-maximal inhibition (IC50) (usually the concentration at which inhibition is half-maximal) came to 49 nM in assay [1] and 35 nM in assay [2].
Consider `CS(=O)(=O)c1ccc(NCCCC[C@H](N)C(=O)N2CCSC2)cc1` [Example 7, 3-[(S)-2-amino-6-(4-methanesulfonylphenylamino)hexanoyl]-1,3-thiazolidine], for which the IC50 in assay [1] was determined as 13 nM; in assay [2] it was 15 nM.
For `N#Cc1ccc(NCCCC[C@H](N)C(=O)N2CCSC2)c([N+](=O)[O-])c1` [Example 5, 3-[(S)-2-amino-6-(4-cyano-2-nitrophenylamino)hexanoyl]-1,3-thiazolidine], in that order: 19 nM and 28 nM.
Taken in the same sequence, the figures for `Cc1cc(C)n(C2CCN([C@@H]3CN[C@H](C(=O)N4CCSC4)C3)CC2)n1` [Example 56, 3-{(2S,4S)-4-[4-(3,5-dimethyl-1-pyrazolyl)piperidino]-2-pyrrolidinylcarbonyl}-1,3-thiazolidine trihydrochloride] were 1.17 nM and 0.91 nM.
Consider `N#Cc1ccc(NCCCC[C@H](N)C(=O)N2CCSC2)nc1` [Example 6, 3-[(S)-2-amino-6-(5-cyanopyridin-2-ylamino)hexanoyl]-1,3-thiazolidine dihydrochloride], for which the 50% inhibitory concentration (IC50) in assay [1] came out at 29 nM; in assay [2], 34 nM.
As for `NCCCC[C@H](N)C(=O)N1CCSC1.O=C(O)C(F)(F)F.O=C(O)C(F)(F)F` [comparison compound 1, 3-L-lysyl-1,3-thiazolidine ditrifluoroacetate, reference compound], the IC50 is 719 nM in assay [1] and 856 nM in assay [2]. In addition, in assay [2] (statement in the text on Experimental Example 1, species not distinguished), the “plasma DPP-IV inhibitory activity (assessment in words)” value is on record as “sufficient”.
Take `N[C@@H](CCCCNc1ccc([N+](=O)[O-])cn1)C(=O)N1CCSC1` [Example 14, 3-[(S)-2-amino-6-(5-nitropyridin-2-ylamino)hexanoyl]-1,3-thiazolidine]: the IC50 in assay [1] amounted to 18 nM; in assay [2] it was 29 nM.
Taken in the same sequence, the figures for `COc1cc(OC)c2nc(C(F)(F)F)cc(N3CCN([C@@H]4CN[C@H](C(=O)N5CCSC5)C4)CC3)c2c1` [Example 55, 3-{(2S,4S)-4-[4-(2-trifluoromethyl-6,8-dimethoxy-4-quinolyl)-1-piperazinyl]-2-pyrrolidinylcarbonyl}-1,3-thiazolidine dihydrochloride] were 0.3 nM and 0.24 nM.
Taken in the same sequence, the figures for `N#Cc1ccc(NCCCC[C@H](N)C(=O)N2CCSC2)cc1C(F)(F)F` [Example 13, 3-{(S)-2-amino-6-[4-cyano-3-(trifluoromethyl)phenylamino]hexanoyl}-1,3-thiazolidine] were 40 nM and 66 nM.
For `O=C([C@@H]1C[C@H](N2CCN(c3cc(C(F)(F)F)nc4ccc(O)cc34)CC2)CN1)N1CCSC1` [Example 48, 3-{(2S,4S)-4-[4-(2-trifluoromethyl-6-hydroxy-4-quinolyl)-1-piperazinyl]-2-pyrrolidinylcarbonyl}-1,3-thiazolidine dihydrochloride], in that order: 0.37 nM and 0.25 nM.
